The nature of data set [1]: an = ratio of the nth substance listed. To be noted: 298.15 K, 101 kPa, Liquid.
Data set [2] in a line: cn = amount concentration of the nth substance listed, in mol/dm3. The following applies: 298.15 K, 101 kPa, Liquid.

Numbers after ± are expanded uncertainties.

In the case of `O=C1CNC(=O)CN1` [2,5-diketopiperazine] + O, the mass density (in general, the mass of a sample divided by its volume) in data set [1] (a1 = 0.0003) amounted to 997.17 ± 0.29 kg/m3; in data set [1] (a1 = 0.0007), 997.34 ± 0.29 kg/m3; in data set [1] (a1 = 0.0009), 997.37 ± 0.29 kg/m3; in data set [1] (a1 = 0.0026) it was 997.92 ± 0.29 kg/m3; in data set [1] (a1 = 0.0053), 998.93 ± 0.28 kg/m3; in data set [1] (a1 = 0.0101), 1000.34 ± 0.28 kg/m3. Besides, the mass density is listed as 1001.42 ± 0.29 kg/m3 in data set [1] (a1 = 0.0134), 1002.16 ± 0.29 kg/m3 in data set [1] (a1 = 0.0157) and 1002.5 ± 0.29 kg/m3 in data set [1] (a1 = 0.0168).

As to `NCC(=O)O` [2-aminoacetic acid] + O, the mass density was 1039.02 ± 0.39 kg/m3 in data set [1] (a1 = 0.1091); 1053.89 ± 0.42 kg/m3 in data set [1] (a1 = 0.1535); 1065.41 ± 0.46 kg/m3 in data set [1] (a1 = 0.1933); 1075.18 ± 0.48 kg/m3 in data set [1] (a1 = 0.2231); 1079.4 ± 0.49 kg/m3 in data set [1] (a1 = 0.239); 1080.36 ± 0.5 kg/m3 in data set [1] (a1 = 0.244). In data set [1] (a1 = 0.2509), the mass density came to 1082.99 ± 0.5 kg/m3.

With `O=C(O)CNCC(=O)O` [N-(carboxymethyl)glycine] + O, the mass density turned out to be 1035.94 ± 0.32 kg/m3 in data set [1] (a1 = 0.1001); 1053.34 ± 0.36 kg/m3 in data set [1] (a1 = 0.1553); 1066.16 ± 0.4 kg/m3 in data set [1] (a1 = 0.193); 1072.41 ± 0.41 kg/m3 in data set [1] (a1 = 0.2113); 1074.86 ± 0.42 kg/m3 in data set [1] (a1 = 0.2201); 1076.92 ± 0.42 kg/m3 in data set [1] (a1 = 0.2258).

Turning to `NCC(=O)NCC(=O)NCC(=O)O` [glycylglycylglycine] + O, the mass density in data set [1] (a1 = 0.0099) came to 1001 ± 0.28 kg/m3; in data set [1] (a1 = 0.0192) it was 1004.77 ± 0.29 kg/m3; in data set [1] (a1 = 0.0355), 1011.02 ± 0.31 kg/m3; in data set [1] (a1 = 0.0452), 1014.88 ± 0.32 kg/m3; in data set [1] (a1 = 0.0544), 1018.36 ± 0.33 kg/m3; in data set [1] (a1 = 0.0624) it was 1021.44 ± 0.34 kg/m3. For the same compound, the mass density in data set [1] (a1 = 0.0641) turned out to be 1022.05 ± 0.34 kg/m3.

Turning to `NCC(=O)NCC(=O)NCC(=O)NCC(=O)O` [glycylglycylglycylglycine] + O, the mass density in data set [1] (a1 = 0.0013) is 997.73 ± 0.29 kg/m3; in data set [1] (a1 = 0.0023), 998.04 ± 0.29 kg/m3; in data set [1] (a1 = 0.0031), 998.3 ± 0.29 kg/m3; in data set [1] (a1 = 0.0033), 998.38 ± 0.29 kg/m3; in data set [1] (a1 = 0.0036), 998.49 ± 0.29 kg/m3; in data set [1] (a1 = 0.0038), 998.55 ± 0.28 kg/m3. In addition, the mass density in data set [1] (a1 = 0.0039) came out at 998.59 ± 0.28 kg/m3.

As to `[Br-].[K+]` [potassium bromide] + O, the mass density came to 1080.52 ± 0.42 kg/m3 in data set [2] (c1 = 1), 1162.26 ± 0.63 kg/m3 in data set [2] (c1 = 2) and 1323.4 ± 1.1 kg/m3 in data set [2] (c1 = 4).

For the compound `[Cl-].[K+]` [potassium chloride] + O, the mass density was found to be 1042.84 ± 0.32 kg/m3 in data set [2] (c1 = 1), 1082.33 ± 0.42 kg/m3 in data set [2] (c1 = 2) and 1168.97 ± 0.63 kg/m3 in data set [2] (c1 = 4).

Consider `CC(=O)[O-].[K+]` [potassium ethanoate] + O, for which the mass density in data set [2] (c1 = 1) is 1043.58 ± 0.32 kg/m3; in data set [2] (c1 = 2), 1087.93 ± 0.43 kg/m3; in data set [2] (c1 = 4), 1170.95 ± 0.64 kg/m3.

The values are drawn from the NIST ThermoML archive (doi:10.1016/j.jct.2006.11.014).
